Where a name gives a salt, the structure may show the parent alone. Read-outs that look alike come from different tables or passages of the source.
Experiments:
[1] = tested on: keratinocytes ("NHEK 6306", Clonetics); experiment: Contraction of collagen gel seeded with keratinocytes; assay type: cell-based, human; settings: 1 hour after addition, area inside contracted ring, control (gel peeling alone) = 100
Protocol: • 1) After type I collagen (“Cellmatrix Type I-A”, Nitta Gelatin), “MCDB 153 medium” (Sigma Chemical Co.), 20 mM HEPES (Wako Pure Chemical Industries) and purified water were thoroughly mixed under ice cooling, 500 μL per well were added to a 24-well plate (Falcon), followed by warming at 37° C. in an incubator to effect gelation. Using MCDB 153 medium, 1 mL aliquots of keratinocytes (“NHEK 6306”, Clonetics) were seeded at 2×10^4 cells/cm^2 onto the collagen gels, respectively. Subsequent to incubation for 24 hours, the collagen gels were peeled off with a pipette tip from the culture dishes. Shortly after that, test substances prepared to a concentration as high as 100 times the final concentration were added 10 μL by 10 μL. Upon elapsed time of 1 hour after the addition, the gels were photographed using a “Minolta α707-si Camera” with “50 Macrolens”. Subsequent to development of the pictures, contracted rings were copied onto OHP sheets, the areas inside the contracted rings were determined by image analysis software, “Image-Pro PLUS” (Media Cybanetics, Inc.), and contraction ratios (%) were calculated supposing that the contraction ratio (%) of a control (gel peeling alone) was 100.

[2] = tested on: human skin fibroblasts (derived from a human fore skin); experiment: Collagen gel tightening promoting ability (fibroblast-embedded collagen gel, dermis model); assay type: cell-based; settings: for activity at 15 µM / activity at 50 µM: read-out: Average gel volume
Protocol: Measurement was conducted on the ability to promote the tightening of a fibroblast-embedded collagen gel as a dermis model. The collagen gel was prepared following the procedure reported in a publication [J. Cell Science, 102, 315 (1992) or J. Invest. Dermatol., 93, 792 (1989)]. Described specifically, a solution of HEPES (250 mM) in a 0.05 N sodium hydroxide solution, a 5-fold concentrate of DMEM (“GIBCO DMEM”, low glucose), FCS (2%, Fetal Calf Serum) and purified water were added under ice cooling to a collagen gel solution (product of Nitta Gelatin Inc., “type 1-A” (3.0 mg/mL, pH=3)), and finally, a suspension of human skin fibroblasts (derived from a human fore skin) was added. After the resulting mixture was thoroughly stirred to eliminate bubbles, 600 μL per well was added to 24-well dishes, followed by immediate warming at 37° C. in an incubator to effect gelation. Three to four hours later, 1 mL of serum-free DMEM medium was added to each of the wells, and the gels were separated at peripheries thereof from the corresponding dishes and were brought into a floating state. Eighteen hours after that, the medium was replaced with serum-free DMEM media which contained 100 to 10 μM of test substances, respectively, and incubation was conducted further for 48 hours.
Volume measurement of the gels was conducted by a weight measuring method similar to that reported in the publication [J. Cell Science, 102, 315 (1992)]. Described specifically, subsequent to immobilization with 10% formalin (4° C., 24 hours), the surface tension of water was reduced by the addition of Triton X100 (product of Wako Pure Chemical Industries) (1%), and the weights were measured.
Measurement results of relative volumes for the respective compounds as calculated supposing that the volume of the control was 100% are presented in Table 3.

[3] = tested on: ear skin pores of New Zealand white rabbits; experiment: Rabbit ear skin pore size after topical application; assay type: in vivo; settings: 2% solution in ethanol, 8 weeks
Protocol: Three of New Zealand white rabbits (male, about 2.5 kg) which ear skin pores were conspicuous were used. A 2% solution of Compound 9 (solvent: ethanol) was applied onto the left ear of each rabbit, and the solvent was applied onto the right ear of the rabbit as a control site, each on the inner side of the ala, twice a day, 150 μL each time.
Upon elapsed time of 8 weeks after the initiation of the application, the skin was collected, and the size of skin pores was measured by image analysis. Described specifically, each rabbit was sacrificed and then, his ears were collected. A scalpel was inserted into each ear sample around the applied site, and the skin was peeled off above the cartilage. At that time, care was exercised to avoid stretching of the skin. The skin was spread over a cork board and then, subjected to biopsy with a punch of 6 mm in diameter to collect the skin from six (6) locations on each ear. The collection was conducted such that skin samples were obtained from the same locations on both the left and right ears. […] On the image, the areas of the individual skin pores were measured, so that the skin pore area on each punched skin sample was calculated. An average of the skin pore areas on the six punched skin samples was recorded as the size of skin pores on the corresponding ear sample of the corresponding rabbit.

[4] = 15 μM, 48 hours, relative volume, control = 100%
[5] = 50 μM, 48 hours, relative volume, control = 100%
[6] = Homo sapiens, Skin fibroblast, 48 h
[7] = Homo sapiens, Skin fibroblast, 15 μM, 48 hours, relative volume, control = 100%
[8] = Homo sapiens, Skin fibroblast, 50 μM, 48 hours, relative volume, control = 100%

Molecule: 1-(2-decyltetradecyl)glycerol-3-phosphate monoarginine salt [Compound 41]
- Contraction ratio (%) ([1]; 10 μM): 87.3%

Molecule: 1-(2-dodecylhexadecyl)-glycerol-3-phosphate monoarginine salt [Compound 42]
- Contraction ratio (%) ([1]; 10 μM): 87.7%

Molecule: 1-(2-heptylundecyl)-glycerol-3-phosphate monoarginine salt [Compound 32]
- Average gel volume [2, 4]: 92%
- Average gel volume [2, 5]: 75%
- Contraction ratio (%) ([1]; 10 μM): 52.2%

Molecule: 1-(2-hexyldecyl)-glycerol-3-phosphate monoarginine salt [Compound 33]
- Contraction ratio (%) ([1]; 10 μM): 63.4%

Molecule: 1-(2-octyldodecyl)-glycerol-3-phosphate monoarginine salt [Compound 34]
- Contraction ratio (%) ([1]; 10 μM): 67.3%

Molecule: 1-[2-(1,3,3-trimethylbutyl)-5,7,7-trimethyloctyl]-glycerol-3-phosphate monoarginine salt [Compound 35]
- Contraction ratio (%) ([1]; 10 μM): 66.9%

Molecule: 1-dodecylglycerol-3-phosphate monoarginine salt [Compound 36]
- Contraction ratio (%) ([1]; 10 μM): 71.3%

Molecule: 1-dodecylpropanediol-3-phosphate disodium salt [Compound 26]
- Contraction ratio (%) ([1]; 1 μM): 73.5%

Molecule: 1-hexadecylglycerol-3-phosphate monoarginine salt [Compound 38]
- Contraction ratio (%) ([1]; 10 μM): 81.4%

Molecule: 1-isostearylglycerol-3-phosphate monoarginine salt [Compound 31-A]
- Average gel volume [2, 4]: 94%
- Average gel volume [2, 5]: 79%
- Contraction ratio (%) ([1]; 10 μM): 56.6%

Molecule: 1-isostearylglycerol-3-phosphate monoarginine salt [Compound 31-B]
- Contraction ratio (%) ([1]; 10 μM): 56.7%

Molecule: 1-octadecylglycerol-3-phosphate monoarginine salt [Compound 39]
- Contraction ratio (%) ([1]; 10 μM): 70.2%

Molecule: 1-oleylglycerol-3-phosphate monoarginine salt [Compound 40]
- Contraction ratio (%) ([1]; 10 μM): 63.0%

Molecule: 1-tetradecylglycerol-3-phosphate monoarginine salt [Compound 37]
- Contraction ratio (%) ([1]; 10 μM): 63.3%

Molecule: CCCCCCCCCCCCCCCCCCOCC(O)COS(=O)(=O)O (centres unmarked) [Compound 2, 1-octadecylglycerol-3-sulfate sodium salt]
- activity at 10 µM ([2]; Homo sapiens, Skin fibroblast, 10 μM, 48 hours, relative volume, control = 100%): 97%
- activity at 30 µM ([2]; Homo sapiens, Skin fibroblast, 30 μM, 48 hours, relative volume, control = 100%): 92%

Molecule: CCCCCCCCCCCCOCC(O)COP(=O)(O)O (centres unmarked) [Compound 5, 1-dodecylglycerol-3-phosphate disodium salt]
- activity at 15 µM [2, 6]: 94%
- activity at 50 µM [2, 6]: 83%

Molecule: CCCCCCCCCCCCCCOCC(O)COP(=O)(O)O (centres unmarked) [Compound 6, 1-tetradecylglycerol-3-phosphate disodium salt]
- activity at 15 µM [2, 7]: 91%
- activity at 50 µM [2, 8]: 88%

Molecule: CCCCCCCCCCCCCCCCOCC(O)COP(=O)(O)O (centres unmarked) [Compound 7, 1-hexadecylglycerol-3-phosphate disodium salt]
- activity at 15 µM [2, 7]: 94%
- activity at 50 µM [2, 8]: 79%

Molecule: CCCCCCCCCCCCCCCCCCOCC(O)COP(=O)([O-])[O-].[Na+].[Na+] (centres unmarked) [Compound 8, 1-octadecylglycerol-3-phosphate disodium salt]
- activity at 15 µM [2, 6]: 93%
- activity at 50 µM [2, 6]: 77%
- Contraction ratio (%) ([1]; 50 μM): 77.0%

Molecule: CC(C)CCCCCCCCCCCCCCCOCC(O)COP(=O)([O-])[O-].[Na+].[Na+] (centres unmarked) [Compound 9, 1-isostearylglycerol-3-phosphate disodium salt]
- Contraction ratio (%) ([1]; 50 μM): 62.3%
- skin pore area ([3]; 150 μL twice a day on ear, control sites 0.022 mm^2): 0.015 mm^2
- smaller in skin pore area than the control sites ([3]; twice a day, versus solvent-applied ear): about 30%

Molecule: CCCCCCCCCCCCO[C@@H]1O[C@H](COS(=O)(=O)[O-])[C@@H](O)[C@H](O)[C@H]1O.[Na+] [Compound 14, 1-β-O-dodecylglucopyranoside-6-sulfate sodium salt]
- Contraction ratio (%) ([1]; 50 μM): 90.0%

Molecule: CCCCCCCCCCCCCCO[C@H]1O[C@H](COS(=O)(=O)[O-])[C@H](O)[C@H](O)[C@H]1O.[Na+] [Compound 23, 1-α-O-tetradecylgalactopyranoside-6-sulfate sodium salt]
- Contraction ratio (%) ([1]; 10 μM): 60.7%

Molecule: CCCCCCCCCCCCCCO[C@@H]1O[C@H](COS(=O)(=O)[O-])[C@H](O)[C@H](O)[C@H]1O.[Na+] [Compound 24, 1-β-O-tetradecylgalactopyranoside-6-sulfate sodium salt]
- Contraction ratio (%) ([1]; 10 μM): 84.9%

Molecule: CCCCCCCCCCCCOCCCOS(=O)(=O)[O-].[Na+] [Compound 25, 1-dodecylpropanediol-3-sulfate sodium salt]
- Contraction ratio (%) ([1]; 10 μM): 88.0%

Molecule: CCCCCCCCCC(CCCCCCC)COCC(O)COP(=O)([O-])[O-].[Na+].[Na+] (centres unmarked) [Compound 28, 1-(2-heptylundecyl)glycerol-3-phosphate disodium salt]
- Contraction ratio (%) ([1]; 10 μM): 48.3%

Molecule: CC(C)CCCCCCCCCCCCCCCC(O)[C@@H](O)[C@@H](O)[C@H](O)[C@@H](CO)OP(=O)([O-])[O-].[Na+].[Na+] (some centres unmarked) [Compound 29, 1-isostearylmannitol-5-phosphate disodium salt]
- Contraction ratio (%) ([1]; 10 μM): 53.3%

Molecule: CC(C)CCCCCCCCCCCCCCCC(O)[C@@H](O)[C@@H](O)[C@H](O)[C@@H](CO)OS(=O)(=O)[O-].[Na+] (some centres unmarked) [Compound 30, 1-isostearylmannitol-5-sulfate sodium salt]
- Contraction ratio (%) ([1]; 10 μM): 56.8%

Molecule: dodecylglucopyranosidephosphate disodium salt mixture [Compound 27]
- Contraction ratio (%) ([1]; 10 μM): 67.0%

Molecule: octylglucopyranosidesulfate sodium salt mixture [Compound 18]
- Contraction ratio (%) ([1]; 50 μM): 90.1%
